In US8945652B2, “High-potency sweetener for weight management and compositions sweetened therewith” (The Coca-Cola Company, priority 2005, dated 2015):

Assay: Sensory evaluation of sweetness linger and taste by expert panel
Set-up: key: 0=no sweetness linger; 1=very slight sweetness linger; 2 slight sweetness linger; 3=moderate sweetness linger; 4=moderately high sweetness linger; 5=high sweetness linger
Settings: scale 0-5
Procedure: In a particular embodiment, a panel of assessors is used to measure the reduction of sweetness linger. Briefly described, a panel of assessors (generally 8 to 12 individuals) is trained to evaluate sweetness perception and measure sweetness at several time points from when the sample is initially taken into the mouth until 3 minutes after it has been expectorated. […] A decrease in score for a time point measured after the sample has cleared the mouth indicates there has been a reduction in sweetness perception.
The panel of assessors may be trained using procedures well known to those of ordinary skill in the art. In a particular embodiment, the panel of assessors may be trained using the Spectrum™ Descriptive Analysis Method (Meilgaard et al, Sensory Evaluation Techniques, 3rd edition, Chapter 11). Desirably, the focus of training should be the recognition of and the measure of the basic tastes; specifically, sweet. In order to ensure accuracy and reproducibility of results, each assessor should repeat the measure of the reduction of sweetness linger about three to about five times per sample, taking at least a five minute break between each repetition and/or sample and rinsing well with water to clear the mouth.
Generally, the method of measuring sweetness comprises taking a 10 mL sample into the mouth, holding the sample in the mouth for 5 seconds and gently swirling the sample in the mouth, rating the sweetness intensity perceived at 5 seconds, expectorating the sample (without swallowing following expectorating the sample), rinsing with one mouthful of water (e.g., vigorously moving water in mouth as if with mouth wash) and expectorating the rinse water, rating the sweetness intensity perceived immediately upon expectorating the rinse water, waiting 45 seconds and, while waiting those 45 seconds, identifying the time of maximum perceived sweetness intensity and rating the sweetness intensity at that time (moving the mouth normally and swallowing as needed), rating the sweetness intensity after another 10 seconds, rating the sweetness intensity after another 60 seconds (cumulative 120 seconds after rinse), and rating the sweetness intensity after still another 60 seconds (cumulative 180 seconds after rinse). Between samples take a 5 minute break, rinsing well with water to clear the mouth.
Sensory evaluation of the samples prepared in Example Set G was carried out under the following protocol, similar to that described hereinabove. In this test protocol, none of the samples were swallowed. […] Immediately upon sensing maximal sweetness, the sample was expectorated, the mouth was rinsed with water and the rate of sweetness decay (“Sweetness Linger”) was measured, where attention was focused on the sweetness 3-4 min after the water rinse. […]

[1] = Example Set G, citric acid/potassium citrate composition equivalent to diet lemon-lime beverage, sweetness 3-4 min after water rinse
[2] = Example Set H, carbon-treated water with phosphoric acid (75%), pH 2.4-2.5

Compound | Sweetness linger [1] | Sweetness linger [2]
rebaudioside A | 5 | 5
OC[C@H]1O[C@@](CO)(O[C@H]2O[C@H](CO)[C@@H](O)[C@H](O)[C@H]2O)[C@@H](O)[C@@H]1O [sugar, sucrose] | 0 | 0
